The numbers were not newly measured in patent US20200386739A1, “TREATMENT OF METAHNOGENIC BACTERIA AS A THERAPY FOR CHRONIC LUNG DISEASE” (priority 2019, published 2020), which cites them from elsewhere.

Positions of bridges follow the written chain, without caps; N, C: chain ends. Non-standard residues stand in square brackets, D forms with d. Residues, ends and D or L forms follow the SMILES beside them. *: point of attachment. Ileψ(thiazoline)Cys = CC[C@H](C)[C@H](N)C1=N[C@H](C(=O)*)CS1; dOrn = NCCC[C@@H](N)C(=O)O

In one data set the test system is Methanogens. The note with it: cell wall lacks peptidoglycan.
For a further data set, the system named is guinea pig ileum. As to conditions: guinea pig ileum exposed to methane.
Data set [1] relates to guinea pig muscle strips from the ileum.
The next data set relates to small intestine of dogs. As to conditions: in vivo infusion of methane into the small intestine of dogs; scintigraphy.
Data set [2] deals with methane producing patients with IBS-C and chronic constipation.

For the molecule `CC[C@H](C)[C@H](N)C1=N[C@H](C(=O)N[C@@H](CC(C)C)C(=O)N[C@H](CCC(=O)O)C(=O)N[C@H](C(=O)N[C@H]2CCCCNC(=O)[C@H](CC(N)=O)NC(=O)[C@@H](CC(=O)O)NC(=O)[C@H](Cc3cnc[nH]3)NC(=O)[C@@H](Cc3ccccc3)NC(=O)[C@H]([C@@H](C)CC)NC(=O)[C@@H](CCCN)NC2=O)[C@@H](C)CC)CS1` [bacitracin] ({Ileψ(thiazoline)Cys}-L[dE]IK[dOrn]I[dF]H[dD]N; lactam 4-C), the susceptibility of methanogens result in the data set on Methanogens is on record as “susceptible”.

Consider `C` [methane], for which, in the data set on guinea pig ileum, the amplitude of contractions entry was “increased”, the “area under the curve (AUC) of intraluminal pressure” value is on record as “increased” and the peristaltic velocity result is “significantly decreased”. Besides, in data set [1] (methane infusion, ileum muscle strips), the contractile amplitude entry was “increased”. The “slowing of small intestinal transit time” value in the data set on small intestine of dogs is 59%.

Turning to `O=C(N[C@H](CO)[C@H](O)c1ccc([N+](=O)[O-])cc1)C(Cl)Cl` [chloramphenicol], the susceptibility of methanogens entry with Methanogens is “susceptible”.

With `NC1=N[C@H](O)[C@H]2[C@H]3O[C@]4(O)O[C@@H]([C@@H](O)[C@@]2(N1)[C@@H]4O)[C@]3(O)CO` [tetrodotoxin], the “effect on the methane-induced increase of contractile amplitude” value in data set [1] is reported as “blocked”.

For `CN1[C@@H]2CC[C@H]1C[C@@H](OC(=O)C(CO)c1ccccc1)C2` (some centres unmarked) [atropine], in data set [1], the “effect on the methane-induced increase of contractile amplitude” value was “reduced”.

For the molecule `CO[C@H]1/C=C/O[C@@]2(C)Oc3c(C)c(O)c4c(O)c(c5c(nc6cc(C)ccn65)c4c3C2=O)NC(=O)/C(C)=C\C=C\[C@H](C)[C@H](O)[C@@H](C)[C@@H](O)[C@@H](C)[C@H](OC(C)=O)[C@@H]1C` [rifaximin], in data set [2], the “colonic transit time and constipation symptoms” value is “improvement”; the methane production result is “reduced”.
